{"source": "patent US6779656B2", "about": "“Polymerizable preparations based on epoxides that contain silicon” (3M Espe AG, priority 2000, dated 2004)", "experiment": "Ames test (ISO/FDIS 7405), mutagenicity test", "type": "cell-based", "source_text": "The improved toxicity is manifested, for example, in a lower mutagenicity.", "note": "Where two headings read alike, the source gives them in different places.", "data": [{"smiles": "C[Si](CCC1CCC2OC2C1)(CCC1CCC2OC2C1)c1ccccc1", "note": "(stereo not drawn) [methylbis[2-(7-oxabicyclo[4.1.0]hept-3-yl)ethyl]phenyl-silane]", "values": [{"measurement": "Ames test (ISO/FDIS 7405)", "result": "negative"}]}, {"smiles": "O=C(OCC1CCC2OC2C1)C1CCC2OC2C1", "note": "(stereo not drawn) [3,4-epoxycyclohexylmethyl 3,4-epoxycyclohexanecarboxylate, reference compound]", "values": [{"measurement": "Ames test (ISO/FDIS 7405)", "setting": "mutagenicity", "result": "positive"}]}, {"smiles": "C[Si](C)(CC1CCC2OC2C1)CC1CCC2OC2C1", "note": "(stereo not drawn) [dimethylbis[2-(7-oxabicyclo[4.1.0]hept-3-yl)methyl]-silane]", "values": [{"measurement": "Ames test (ISO/FDIS 7405)", "result": "negative"}]}]}
